Earlier results on 1 substance are cited in patent publication US20070020249A1, “COMPOSITIONS FOR PREVENTION AND TREATEMENT OF SYMPTOMS OF GASTROINTESTINAL DISTRESS” (priority 2005, published 2007).

For the series the following is noted: humans; Auburn University study.

For “oxygen-coordinated chromium polynicotinate”, the “reduction of LDL cholesterol, average” value was 14%.
